# Results taken from patent publication US10562891B2, “Quinazolinones as PARP14 inhibitors” (Ribon Therapeutics Inc., priority 2017, dated 2020).
# Target: catalytic domain of human PARP14 (Homo sapiens (Human), UniProt Q460N5)
# Assay: Enzymatic assay for inhibition of PARP14 (DELFIA, auto-modification with biotin-NAD)
# Format: biochemical
# Conditions: auto-modification of PARP14 by biotin-NAD, 50 nM PARP14, 3 μM biotin-NAD
# How it was run: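 DELFIA auto-modification read-out: europium-streptavidin bound to biotin-NAD incorporated onto nickel-captured His-TEV PARP14 catalytic domain. Compound preincubated 30 min, then 50 nM enzyme with 3 μM biotin-NAD reacted 3 h, all at 25 °C, pH 8, then NAD quench. Percent inhibition normalized to rucaparib/DMSO wells, fitted (4- or 3-parameter) for IC50.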
# Chain of catalytic domain of human PARP14 (Q460N5 1611-1801): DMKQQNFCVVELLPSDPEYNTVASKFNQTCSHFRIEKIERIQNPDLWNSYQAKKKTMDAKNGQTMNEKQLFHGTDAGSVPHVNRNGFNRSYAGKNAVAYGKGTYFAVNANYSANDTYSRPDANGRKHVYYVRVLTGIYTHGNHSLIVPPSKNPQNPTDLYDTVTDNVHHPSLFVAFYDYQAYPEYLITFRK
row,Compound,IC50 [nM]
1,CC(=O)N1CC[C@@H](Nc2cc3nc(CS[C@H]4CC[C@H](O)CC4)[nH]c(=O)c3c(F)c2F)C1 [Example 349],< 1000
2,O=c1[nH]c(CS[C@H]2CC[C@H](O)CC2)nc2cc(NC3CCCC3(F)F)cc(F)c12 (some centres unmarked) [Example 350],< 1000
3,O=c1[nH]c(CSC2CCOCC2)nc2cc(OCC3CCS(=O)(=O)CC3)cc(F)c12 [Example 351],< 1000
4,O=c1[nH]c(CSC2CCOCC2)nc2cc(OCC3CCOCC3)cc(Cl)c12 [Example 353],< 1000
5,O=c1[nH]c(CS[C@H]2CC[C@H](O)CC2)nc2cc(NC3CCN(CCC(F)(F)F)CC3)c(F)c(F)c12 [Example 354],< 1000
6,CC1(C)CC(COc2cc(F)c3c(=O)[nH]c(CS[C@H]4CC[C@H](O)CC4)nc3c2)CO1 (some centres unmarked) [Example 355],< 1000
7,CO[C@H]1CC[C@H](SCc2nc3cc(OCC4CCOCC4)cc(F)c3c(=O)[nH]2)CC1 [Example 356],< 1000
8,CO[C@H]1CC[C@@H](SCc2nc3cc(OCC4CCOCC4)cc(F)c3c(=O)[nH]2)CC1 [Example 357],< 1000
9,CC1(SCc2nc3cc(OCC4CCOCC4)cc(F)c3c(=O)[nH]2)CCOCC1 [Example 358],< 1000
10,N#C[C@H]1CC[C@H](Nc2cc3nc(CSC4CCOCC4)[nH]c(=O)c3c(F)c2F)CC1 [Example 360],< 1000
11,N#C[C@H]1CC[C@@H](Nc2cc3nc(CSC4CCOCC4)[nH]c(=O)c3c(F)c2F)CC1 [Example 361],< 1000
12,CO[C@H]1C[C@H](Nc2cc3nc(CSC4CCOCC4)[nH]c(=O)c3c(F)c2F)C1 [Example 362],< 1000
13,CO[C@H]1C[C@@H](Nc2cc3nc(CS[C@H]4CC[C@H](O)CC4)[nH]c(=O)c3c(F)c2F)C1 [Example 363],< 1000
14,Cc1cc(OCC2CCOCC2)cc2nc(CSC3CCOCC3)[nH]c(=O)c12 [Example 364],< 1000
15,O=c1[nH]c(CS[C@H]2CC[C@@H](O)CC2)nc2cc(OCC3CCOCC3)cc(F)c12 [Example 365],< 1000
16,O=c1[nH]c(CSC2CCC(F)(F)CC2)nc2cc(OCC3CCOCC3)cc(F)c12 [Example 366],< 1000
17,CC(=O)N1CCC(COc2cc(F)c3c(=O)[nH]c(CSC4CCOCC4)nc3c2)C1 (centres unmarked) [Example 367],< 1000
18,O=c1[nH]c(CSC2CCOCC2)nc2cc(CCC3CCCCC3)cc(F)c12 [Example 368],1000 to 10000
19,CC(=O)N1CCC(CNc2cc3nc(CSC4CCOCC4)[nH]c(=O)c3c(F)c2F)CC1 [Example 369],< 1000
20,O=c1[nH]c(CSC2CCOCC2)nc2cc(SCC3CCOCC3)cc(F)c12 [Example 370],< 1000
21,C[C@]1(O)CC[C@H](SCc2nc3cc(OCC4CCOC4)cc(F)c3c(=O)[nH]2)CC1 (some centres unmarked) [Example 373],< 1000
22,CO[C@H]1C[C@@H](Nc2cc3nc(CS[C@H]4CC[C@](C)(O)CC4)[nH]c(=O)c3c(F)c2F)C1 [Example 374],< 1000
23,O=c1[nH]c(CS[C@H]2CC[C@H](OC(F)(F)F)CC2)nc2cc(OCC3CCOCC3)cc(F)c12 [Example 375],< 1000
24,O=c1[nH]c(CSC2CCOCC2)nc2cc(OCC3CCOC3)cc(Br)c12 (centres unmarked) [Example 376],< 1000

row,Compound,IC50 [nM]
1,CO[C@H]1CC[C@H](Nc2cc3nc(CS[C@H]4CC[C@H](O)CC4)[nH]c(=O)c3c(F)c2F)CC1 [Example 377],< 1000
2,CCC(=O)N[C@H]1CC[C@H](SCc2nc3cc(OCC4CC4)cc(F)c3c(=O)[nH]2)CC1 [Example 378],< 1000
3,CO[C@H]1CC[C@@H](Nc2cc3nc(CS[C@H]4CC[C@H](O)CC4)[nH]c(=O)c3c(F)c2F)CC1 [Example 379],< 1000
4,CC(=O)NC1(C)CCC(SCc2nc3cc(OCC4CC4)cc(F)c3c(=O)[nH]2)CC1 (centres unmarked) [Example 380],< 1000
5,O=c1[nH]c(CS[C@H]2CC[C@H](O)CC2)nc2cc(N[C@@H]3CCCOC3)c(F)c(F)c12 [Example 381],< 1000
6,O=c1[nH]c(CS[C@H]2C[C@H](O)C2)nc2cc(OCC3CCOCC3)cc(F)c12 [Example 382],< 1000
7,N#Cc1cc(OCC2CCOC2)cc2nc(CSC3CCOCC3)[nH]c(=O)c12 (centres unmarked) [Example 383],< 1000
8,CC(C)(C)CNc1cc2nc(CSC3CCOCC3)[nH]c(=O)c2c(F)c1F [Example 384],< 1000
9,C[C@]1(O)C[C@H](COc2cc(F)c3c(=O)[nH]c(CSC4CCOCC4)nc3c2)C1 [Example 385],< 1000
10,C[C@]1(O)C[C@@H](COc2cc(F)c3c(=O)[nH]c(CSC4CCOCC4)nc3c2)C1 [Example 386],< 1000
11,CC(=O)N[C@H]1C[C@@H](SCc2nc3cc(OCC4CCOCC4)cc(F)c3c(=O)[nH]2)C1 [Example 387],< 1000
12,CO[C@H]1C[C@@H](Nc2cc3nc(CS[C@H]4CC[C@H](NC(C)=O)CC4)[nH]c(=O)c3c(F)c2F)C1 [Example 389],< 1000
13,O=C(C1CC1)N1CCC(COc2cc(F)c3c(=O)[nH]c(CSC4CCOCC4)nc3c2)CC1 [Example 390],< 1000
14,CC(=O)N[C@H]1CC[C@H](SCc2nc3cc(OCC4CCOC4)cc(F)c3c(=O)[nH]2)CC1 (some centres unmarked) [Example 391],< 1000
15,CC(=O)N[C@H]1CC[C@H](SCc2nc3cc(NC4CCC4)c(F)c(F)c3c(=O)[nH]2)CC1 [Example 392],< 1000
16,CC(=O)N[C@H]1C[C@H](SCc2nc3cc(OCC4CCOCC4)cc(F)c3c(=O)[nH]2)C1 [Example 393],< 1000
17,CC(Oc1cc(F)c2c(=O)[nH]c(CSC3CCOCC3)nc2c1)C1CCCC1 (centres unmarked) [Example 394],< 1000
18,O=C(N[C@H]1CC[C@H](SCc2nc3cc(OCC4CC4)cc(F)c3c(=O)[nH]2)CC1)C1CC1 [Example 395],< 1000
19,CC(=O)N1CCC(COc2cc(F)c3c(=O)[nH]c(CS[C@H]4CC[C@H](O)CC4)nc3c2)CC1 [Example 396],< 1000
20,CC(C)C(=O)N1CCC(COc2cc(F)c3c(=O)[nH]c(CSC4CCOCC4)nc3c2)CC1 [Example 397],< 1000
21,CCC(=O)N1CCC(COc2cc(F)c3c(=O)[nH]c(CSC4CCOCC4)nc3c2)CC1 [Example 398],< 1000
22,O=c1[nH]c(CSC2CCOCC2)nc2cc(OCC3CCNCC3)cc(F)c12 [Example 399],< 1000
23,CC(Nc1cc2nc(CSC3CCOCC3)[nH]c(=O)c2c(F)c1F)C1CCOCC1 (centres unmarked) [Example 400],> 10000
24,CC(=O)N1CCCC(COc2cc(F)c3c(=O)[nH]c(CSC4CCOCC4)nc3c2)C1 (centres unmarked) [Example 401],< 1000

row,Compound,IC50 [nM]
1,O=c1[nH]c(CSC2CCOCC2)nc2cc(N[C@H]3C[C@@H](OC(F)(F)F)C3)c(F)c(F)c12 [Example 402],< 1000
2,Nc1cc2nc(CSC3CCOCC3)[nH]c(=O)c2c(F)c1F [Example 403],> 10000
3,CN(C)[C@H]1CC[C@H](SCc2nc3cc(OCC4CC4)cc(F)c3c(=O)[nH]2)CC1 [Example 404],< 1000
4,O=c1[nH]c(CS[C@H]2C[C@@H](O)C2)nc2cc(OCC3CCOCC3)cc(F)c12 [Example 405],< 1000
5,O=c1[nH]c(CSC2CCOCC2)nc2cc(OCC3CCOCC3)c(F)c(F)c12 [Example 406],< 1000
6,COC(C)(C)CNc1cc2nc(CSC3CCOCC3)[nH]c(=O)c2c(F)c1F [Example 407],1000 to 10000
7,CC(=O)N1CCC(COc2cc(F)c3c(=O)[nH]c(CS[C@H]4CC[C@](C)(O)CC4)nc3c2)CC1 [Example 409],< 1000
8,COC(=O)N1CCC(COc2cc(F)c3c(=O)[nH]c(CSC4CCOCC4)nc3c2)CC1 [Example 410],< 1000
9,C[C@]1(O)CC[C@@H](SCc2nc3cc(OCC4CCOCC4)cc(F)c3c(=O)[nH]2)CC1 [Example 411],< 1000
10,CN1CCOC(COc2cc(F)c3c(=O)[nH]c(CSC4CCOCC4)nc3c2)C1 (centres unmarked) [Example 414],< 1000
11,CN1CCC(COc2cc(F)c3c(=O)[nH]c(CSC4CCOCC4)nc3c2)CC1 [Example 415],< 1000
12,CC(C)(C)COc1cc(F)c2c(=O)[nH]c(CSC3CCOCC3)nc2c1 [Example 416],< 1000
13,CC(=O)N1CCC(COc2cc(F)c3c(=O)[nH]c(CS[C@H]4CC[C@@](C)(O)CC4)nc3c2)CC1 [Example 417],< 1000
14,O=c1[nH]c(CS[C@H]2CC[C@@H](OC(F)(F)F)CC2)nc2cc(OCC3CCOCC3)cc(F)c12 [Example 418],< 1000
15,CC(=O)N1CCC(CNc2cc3nc(CS[C@H]4CC[C@H](O)CC4)[nH]c(=O)c3c(F)c2F)CC1 [Example 419],< 1000
16,CNc1cc2nc(CSC3CCOCC3)[nH]c(=O)c2c(F)c1F [Example 420],< 1000
17,CC(C)(COc1cc(F)c2c(=O)[nH]c(CSC3CCOCC3)nc2c1)C(F)(F)F [Example 421],< 1000
18,CC(=O)N1CCC(COc2cc(F)c3c(=O)[nH]c(CS[C@H]4CC[C@@H](O)CC4)nc3c2)CC1 [Example 422],< 1000
19,CC(=O)N1CCC(COc2cc(Cl)c3c(=O)[nH]c(CSC4CCOCC4)nc3c2)CC1 [Example 423],< 1000
20,COCC(=O)N1CCC(COc2cc(F)c3c(=O)[nH]c(CSC4CCOCC4)nc3c2)CC1 [Example 424],< 1000
21,CN1CC[C@H](CNc2cc3nc(CSC4CCOCC4)[nH]c(=O)c3c(F)c2F)[C@@H](F)C1 [Example 425],< 1000
22,CC(=O)N[C@H]1CC[C@H](SCc2nc3cc(OCC4CCOCC4)cc(F)c3c(=O)[nH]2)CC1 [Example 426],< 1000
23,CN1CCC(COc2cc(F)c3c(=O)[nH]c(CSC4CCOCC4)nc3c2)C(F)(F)C1 (centres unmarked) [Example 427],< 1000
